What was measured:
Format in all cases: in vivo
IFN-γ [1] = test: IFN-γ levels in sera upon i.v. glycolipid administration to BALB/c mice (ELISA); design: IFN-γ levels, test 1 / IFN-γ levels, test 2 / IFN-γ levels, average / IFN-γ levels, Total: unit not given here
Procedure: (§1) Five- to six-week-old female C57BL/6 mice and BALB/c mice were purchased from Taconic. Each glycolipid was stored at 1 mg/ml in 100% DMSO. Mice were injected intravenously with 1 μg of each glyocolipid diluted in 200 μL sterile phosphate buffered saline (PBS). At indicated time points, sera were collected from each animal, and concentrations of IFN-γ, IL-4, and IL-12 in the sera were evaluated by enzyme-linked immunosorbent assay (ELISA). Serum concentrations of IFN-γ, IL-4, and IL-12 were evaluated using an ELISA kit (eBioscience, San Diego, Calif.). Briefly, 96 well flat-bottom ELISA plates (NUNC) were coated with capture antibody according to the manufacture's recommendation and incubated overnight at 4° C. The plates were washed with PBS+0.05% Tween 20 (PBS-T), then incubated with manufacturer provided blocking solution for 1 hr at room temperature to block non-specific binding sites. After washing with PBS-T, sera diluted 1:10 was added to the wells and incubated for 2 hrs at room temperature. Plates were then incubated at room temperature for 1 hr with biotintylated detection antibody, washed, incubated with avidin conjugated to horse radish peroxidase (HRP) for 30 min at room temperature, washed, and finally incubated with tetramethylbenzidine substrate solution in the dark for 10 minutes at room temperature. The antibodies, avidin-HRP, and substrate solution were all diluted according to the manufacture's recommendation. Reactions were stopped with 2.0N sulfuric acid and the cytokine concentration in each well was determined by comparing the absorbance at 450 nm in each well to known standards. The levels of Th1- and Th2-type cytokines were determined in two different genetic backgrounds, i.e., in C57BL/6 mice and BALB/c mice. The following compounds were administered: A=compound (A-1 trans-conformer), B=compound (A-2), C=compound (A-3), D=compound (A-4), E=compound (A-5), Z=control (PBS alone), CRONY=α-C-GalCer, KRN=α-GalCer, GCK109 (A-1 trans-conformer), GCK151 (A-1 cis-conformer), GCK152 (A-7). The levels of cytokines were measured at 0, 2, 6, 12, 24, 48, and 72 hours after the compound administration. The levels of Th1-type cytokines IFN-γ and IL-12 are summarized in FIGS. 2A-C and 3A-C, respectively. Table 7 provides IFN-γ/IL-4 and IL-12/IL-4 ratios for various compounds, which can be used as indicators of their ability to selectively stimulate Th1-type immune responses.

IFN-γ [2] = test: IFN-γ levels in sera upon i.v. glycolipid administration to C57BL/6 mice (ELISA); design: IFN-γ levels, test 1 / IFN-γ levels, test 2 / IFN-γ levels, average / IFN-γ levels, Total / IFN-γ (B6): unit not given here
Procedure: as §1

IL-12 = IL-12 levels in sera upon i.v. glycolipid administration to C57BL/6 mice (ELISA); design: IL-12 levels, test 1 / IL-12 levels, test 2 / IL-12 levels, average / IL-12 levels, Total: unit not given here
Procedure: as §1

IL-4 = IL-4 levels in sera upon i.v. glycolipid administration to C57BL/6 mice (ELISA); design: unit not given here
Procedure: as §1

[3] = C57BL/6, ratio calculated from Tables 1-6
[4] = C57BL/6, serum, total over hours 0-72

## CCCCCCCCCCCCCCCCCC/C=C/CCCCCCCCC(=O)N[C@@H](/C=C/[C@H]1O[C@H](CO)[C@H](O)[C@H](O)[C@H]1O)[C@H](O)[C@H](O)CCCCCCCCCCCCCC [A-1]
IFN-γ [1]; BALB/c, ratio calculated from Tables 1-6
  IFN-γ/IL-4 (BALB/c): 37
IFN-γ [1]; BALB/c, serum, hour 0
  IFN-γ levels, average: 27
  IFN-γ levels, test 1: 27
  IFN-γ levels, test 2: 27
IFN-γ [1]; BALB/c, serum, hour 2
  IFN-γ levels, average: 303
  IFN-γ levels, test 1: 373
  IFN-γ levels, test 2: 233
IFN-γ [1]; BALB/c, serum, hour 6
  IFN-γ levels, average: 3990.5
  IFN-γ levels, test 1: 2814
  IFN-γ levels, test 2: 5167
IFN-γ [1]; BALB/c, serum, hour 12
  IFN-γ levels, average: 5514
  IFN-γ levels, test 1: 4881
  IFN-γ levels, test 2: 6147
IFN-γ [1]; BALB/c, serum, hour 24
  IFN-γ levels, average: 15250
  IFN-γ levels, test 1: 16100
  IFN-γ levels, test 2: 14400
IFN-γ [1]; BALB/c, serum, hour 48
  IFN-γ levels, average: 484.5
  IFN-γ levels, test 1: 441
  IFN-γ levels, test 2: 528
IFN-γ [1]; BALB/c, serum, hour 72
  IFN-γ levels, average: 62.5
  IFN-γ levels, test 1: 62
  IFN-γ levels, test 2: 63
IFN-γ [1]; BALB/c, serum, total over hours 0-72
  IFN-γ levels, Total: 25633
IFN-γ [1]; C57BL/6 and BALB/c mice, 1 μg i.v.
  effect: higher/extended IFN-γ and IL-12 with much lower IL-4 compared to α-GalCer (KRN): particularly pronounced
IFN-γ [2]; [3]
  IFN-γ/IL-4 (B6): 12
IFN-γ [2]; C57BL/6, serum, hour 0
  IFN-γ levels, average: 31
  IFN-γ levels, test 1: 31
  IFN-γ levels, test 2: 31
IFN-γ [2]; C57BL/6, serum, hour 2
  IFN-γ levels, average: 281
  IFN-γ levels, test 1: 226
  IFN-γ levels, test 2: 336
IFN-γ [2]; C57BL/6, serum, hour 6
  IFN-γ levels, average: 1147.5
  IFN-γ levels, test 1: 1172
  IFN-γ levels, test 2: 1123
IFN-γ [2]; C57BL/6, serum, hour 12
  IFN-γ levels, average: 4323
  IFN-γ levels, test 1: 4093
  IFN-γ levels, test 2: 4553
IFN-γ [2]; C57BL/6, serum, hour 24
  IFN-γ levels, average: 11150
  IFN-γ levels, test 1: 10000
  IFN-γ levels, test 2: 12300
IFN-γ [2]; C57BL/6, serum, hour 48
  IFN-γ levels, average: 400.5
  IFN-γ levels, test 1: 366
  IFN-γ levels, test 2: 435
IFN-γ [2]; C57BL/6, serum, hour 72
  IFN-γ levels, average: 151
  IFN-γ levels, test 1: 124
  IFN-γ levels, test 2: 178
IFN-γ [2]; [4]
  IFN-γ levels, Total: 17485
IL-12; [3]
  IL-12/IL-4 (B6): 2.9
IL-12; C57BL/6, serum, hour 0
  IL-12 levels, average: 5
  IL-12 levels, test 1: 5
  IL-12 levels, test 2: 5
IL-12; C57BL/6, serum, hour 2
  IL-12 levels, average: 20
  IL-12 levels, test 1: 40
  IL-12 levels, test 2: 0
IL-12; C57BL/6, serum, hour 6
  IL-12 levels, average: 2181.5
  IL-12 levels, test 1: 1993
  IL-12 levels, test 2: 2370
IL-12; C57BL/6, serum, hour 12
  IL-12 levels, average: 2071
  IL-12 levels, test 1: 1790
  IL-12 levels, test 2: 2352
IL-12; C57BL/6, serum, hour 24
  IL-12 levels, average: 54
  IL-12 levels, test 1: 30
  IL-12 levels, test 2: 78
IL-12; C57BL/6, serum, hour 48
  IL-12 levels, average: 0
  IL-12 levels, test 1: 0
  IL-12 levels, test 2: 0
IL-12; C57BL/6, serum, hour 72
  IL-12 levels, average: 0
  IL-12 levels, test 1: 0
  IL-12 levels, test 2: 0
IL-12; [4]
  IL-12 levels, Total: 4332
IL-4; hour 0
  IL-4 level, average: 46
  IL-4 level, test 1: 46
  IL-4 level, test 2: 46
IL-4; hour 2
  IL-4 level, average: 1088
  IL-4 level, test 1: 914
  IL-4 level, test 2: 1262
IL-4; hour 6
  IL-4 level, average: 109
  IL-4 level, test 1: 90
  IL-4 level, test 2: 128
IL-4; hour 12
  IL-4 level, average: 55
  IL-4 level, test 1: 44
  IL-4 level, test 2: 66
IL-4; hour 24
  IL-4 level, average: 56.5
  IL-4 level, test 1: 57
  IL-4 level, test 2: 56
IL-4; hour 48
  IL-4 level, average: 44
  IL-4 level, test 1: 47
  IL-4 level, test 2: 41
IL-4; hour 72
  IL-4 level, average: 88
  IL-4 level, test 1: 61
  IL-4 level, test 2: 115
IL-4; total over hours 0-72
  IL-4 level, Total: 1487
